Tested on: batrachotoxin (BTX) binding site of the sodium channel
Assay: Affinity to the batrachotoxin (BTX) binding site of the sodium channel
Conditions: Table II; rat cerebrocortex synaptosomes; test concentration not given

Going from `Cl.O=C(C(c1ccccc1)c1ccccc1)N1CCC2(CC1)N[C@@H](Cc1ccccc1)C(=O)N2Cc1ccccc1` [Example 56, 1,3-(S)-dibenzyl-8-diphenylacetyl-1,4,8-triazaspiro[4,5]decan-2-one hydrochloride] to `COc1cccc(C(=O)N2CCC3(CC2)N[C@@H](Cc2ccccc2)C(=O)N3Cc2ccccc2)c1.Cl` [Example 61, 1,3-(S)-dibenzyl-8-(3-methoxybenzoyl)-1,4,8-triazaspiro[4,5]decan-2-one hydrochloride], the BTX inhibition falls from 67 to 41.

Compound `Cl.O=C(c1ccc(Cl)cc1)N1CCC2(CC1)N[C@@H](Cc1ccccc1)C(=O)N2Cc1ccc(F)cc1` (racemic) [Example 28, 3-(S,R)-benzyl-8-(4-chlorobenzoyl)-1-(4-fluorobenzyl)-1,4,8-triazaspiro[4,5]decan-2-one hydrochloride] has a BTX inhibition of 47.

Same assay, conditions: Table III; rat cerebrocortex synaptosomes; test concentration not given

First: O=C(c1ccc(Br)cc1)N1CCC2(CC1)NC(Cc1ccccc1)C(=O)N2Cc1ccccc1 (stereo not shown) [Example 105, 1,3-Dibenzyl-8-(4-bromobenzoyl)-1,4,8-triazaspiro[4,5]decan-2-one]
Second: O=C(c1ccc(-c2ccccc2)cc1)N1CCC2(CC1)NCC(=O)N2Cc1ccccc1 [Example 72, 1-Benzyl-8-(biphenyl-4-carbonyl)-1,4,8-triazaspiro[4,5]decan-2-one]
The BTX inhibition of the first is higher: 66 for the first, 39 for the second.

First: CC(C)CC1NC2(CCN(C(=O)c3ccc(-c4ccccc4)cc3)CC2)N(Cc2ccc(F)cc2)C1=O (stereo not shown) [Example 101, 8-(Biphenyl-4-carbonyl)-1-(4-fluorobenzyl)-3-isobutyl-1,4,8-triazaspiro[4,5]decan-2-one]
Second: CCOc1ccc(C(=O)N2CCC3(CC2)NC(CC(C)C)C(=O)N3Cc2ccccc2)cc1 (stereo not shown) [Example 179, 1-Benzyl-8-(4-ethoxybenzoyl)-3-isobutyl-1,4,8-triazaspiro[4,5]decan-2-one]
The BTX inhibition of the first is higher: 78 for the first, 46 for the second.

First: CC(C)CC1NC2(CCN(C(=O)CC3CCCC3)CC2)N(Cc2ccc(F)cc2)C1=O (stereo not shown) [Example 197, 8-(2-Cyclopentylacetyl)-1-(4-fluorobenzyl)-3-isobutyl-1,4,8-triazaspiro[4,5]decan-2-one]
Second: CC(C)CC1NC2(CCN(C(=O)CCC3CCCC3)CC2)N(Cc2ccccc2F)C1=O (stereo not shown) [Example 220, 8-(3-Cyclopentylpropionyl)-1-(2-fluorobenzyl)-3-isobutyl-1,4,8-triazaspiro[4,5]decan-2-one]
The BTX inhibition of the first is lower: 41 for the first, 62 for the second.

Going from `CCOC(=O)CN1C(=O)C(CCSC)NC12CCN(C(=O)c1ccc(C(F)(F)F)cc1)CC2` (stereo not shown) [Example 322, Ethyl [3-(2-methylsulfanylethyl)-2-oxo-8-(4-trifluoromethylbenzoyl)-1,4,8-triazaspiro[4,5]dec-1-yl]acetate] to `C#CCN1C(=O)C(CCSC)NC12CCN(C(=O)c1ccc(-c3ccccc3)cc1)CC2` (stereo not shown) [Example 213, 8-(Biphenyl-4-carbonyl)-3-(2-methylsulfanylethyl)-1-prop-2-ynyl-1,4,8-triazaspiro[4,5]decan-2-one], the BTX inhibition rises from 36 to 43.

Going from `CC(C)C1NC2(CCN(C(=O)COc3cccc(Cl)c3)CC2)N(CCOc2ccccc2)C1=O` (stereo not shown) [Example 165, 8-[2-(3-Chlorophenoxy)acetyl]-3-isopropyl-1-(2-phenoxyethyl)-1,4,8-triazaspiro[4,5]decan-2-one] to `Cc1onc(-c2c(F)cccc2Cl)c1C(=O)N1CCC2(CC1)NC(C(C)C)C(=O)N2CCOc1ccccc1` (stereo not shown) [Example 131, 8-[3-(2-Chloro-6-fluorophenyl)-5-methylisoxazole-4-carbonyl]-3-isopropyl-1-(2-phenoxyethyl)-1,4,8-triazaspiro[4,5]decan-2-one], the BTX inhibition falls from 63 to 37.

Going from `CSCCC1NC2(CCN(C(=O)c3c(-c4c(F)cccc4Cl)noc3C)CC2)N(Cc2cccc(C#N)c2)C1=O` (stereo not shown) [Example 181, 3-[8-[3-(2-Chloro-6-fluorophenyl)-5-methylisoxazole-4-carbonyl]-3-(2-methylsulfanylethyl)-2-oxo-1,4,8-triazaspiro[4,5]dec-1-ylmethyl]benzonitrile] to `CSCCC1NC2(CCN(C(=O)c3c(-c4ccccc4Cl)noc3C)CC2)N(Cc2cc(C)cc(C)c2)C1=O` (stereo not shown) [Example 169, 8-[3-(2-Chlorophenyl)-5-methylisoxazole-4-carbonyl]-1-(3,5-dimethylbenzyl)-3-(2-methylsulfanylethyl)-1,4,8-triazaspiro[4,5]decan-2-one], the BTX inhibition rises from 43 to 51.

Going from `CSCCC1NC2(CCN(C(=O)c3cccc(N(C)C)c3)CC2)N(Cc2cc(C)cc(C)c2)C1=O` (stereo not shown) [Example 137, 8-(3-Dimethylaminobenzoyl)-1-(3,5-dimethylbenzyl)-3-(2-methylsulfanylethyl)-1,4,8-triazaspiro[4,5]decan-2-one] to `CSCCC1NC2(CCN(C(=O)c3cccc(Cl)c3F)CC2)N(Cc2cc(C)cc(C)c2)C1=O` (stereo not shown) [Example 156, 8-(3-Chloro-2-fluorobenzoyl)-1-(3,5-dimethylbenzyl)-3-(2-methylsulfanylethyl)-1,4,8-triazaspiro[4,5]decan-2-one], the BTX inhibition rises from 59 to 60.

First: CCCCC(=O)N1CCC2(CC1)NCC(=O)N2Cc1cccc(C#N)c1 [Example 268, 3-(2-Oxo-8-pentanoyl-1,4,8-triazaspiro[4,5]dec-1-ylmethyl)benzonitrile]
Second: CCCCC(CC)C(=O)N1CCC2(CC1)NCC(=O)N2CCOc1ccccc1 (stereo not shown) [Example 133, 8-(2-Ethylhexanoyl)-1-(2-phenoxyethyl)-1,4,8-triazaspiro[4,5]decan-2-one]
The BTX inhibition of the first is lower: 31 for the first, 35 for the second.

First: CC(C)CC1NC2(CCN(C(=O)c3cc(C(F)(F)F)ccc3Cl)CC2)N(Cc2c(Cl)cccc2Cl)C1=O (stereo not shown) [Example 326, 8-(2-Chloro-5-trifluoromethylbenzoyl)-1-(2,6-dichlorobenzyl)-3-isobutyl-1,4,8-triazaspiro[4,5]decan-2-one]
Second: CC(C)CC1NC2(CCN(C(=O)c3ccc(C(F)(F)F)c(F)c3)CC2)N(Cc2ccccc2)C1=O (stereo not shown) [Example 241, 1-Benzyl-8-(3-fluoro-4-trifluoromethylbenzoyl)-3-isobutyl-1,4,8-triazaspiro[4,5]decan-2-one]
The BTX inhibition of the first is higher: 68 for the first, 58 for the second.

Compared with `Cc1cccc(C(=O)N2CCC3(CC2)NC(CC(C)C)C(=O)N3Cc2ccccc2F)c1` (stereo not shown) [Example 132, 1-(2-Fluorobenzyl)-3-isobutyl-8-(3-methylbenzoyl)-1,4,8-triazaspiro[4,5]decan-2-one], `CC(C)C1NC2(CCN(C(=O)c3cccc(Cl)c3F)CC2)N(Cc2ccccc2C#N)C1=O` (stereo not shown) [Example 247, 2-[8-(3-Chloro-2-fluorobenzoyl)-3-isopropyl-2-oxo-1,4,8-triazaspiro[4,5]dec-1-ylmethyl]benzonitrile] is lower in BTX inhibition: 54 for the first, 32 for the second.

First: CCCCN1C(=O)C(C(C)C)NC12CCN(C(=O)CC1CCCC1)CC2 (stereo not shown) [Example 201, 1-Butyl-8-(2-cyclopentylacetyl)-3-isopropyl-1,4,8-triazaspiro[4,5]decan-2-one]
Second: C=CCCC(=O)N1CCC2(CC1)NC(C(C)C)C(=O)N2CC=C (stereo not shown) [Example 307, 1-Allyl-3-isopropyl-8-pent-4-enoyl-1,4,8-triazaspiro[4,5]decan-2-one]
The BTX inhibition of the first is higher: 42 for the first, 31 for the second.

Going from `CN1C(=O)C(Cc2ccccc2)NC12CCN(C(=O)COc1ccccc1)CC2` (stereo not shown) [Example 184, 3-Benzyl-1-methyl-8-(2-phenoxyacetyl)-1,4,8-triazaspiro[4,5]decan-2-one] to `CCOc1ccc(C(=O)N2CCC3(CC2)NC(Cc2ccccc2)C(=O)N3C)cc1` (stereo not shown) [Example 135, 3-Benzyl-8-(4-ethoxybenzoyl)-1-methyl-1,4,8-triazaspiro[4,5]decan-2-one], the BTX inhibition falls from 62 to 31.

Compared with `CC(C)C1NC2(CCN(C(=O)C3COc4ccc(Cl)cc4C3)CC2)N(Cc2ccccc2C#N)C1=O` (stereo not shown) [Example 245, 2-[8-(6-Chloro-2H-chroman-3-carbonyl)-3-isopropyl-2-oxo-1,4,8-triazaspiro[4,5]dec-1-ylmethyl]benzonitrile], `CN1C(=O)C(Cc2ccccc2)NC12CCN(C(=O)C1COc3ccc(Cl)cc3C1)CC2` (stereo not shown) [Example 242, 3-Benzyl-8-(6-chloro-2H-chroman-3-carbonyl)-1-methyl-1,4,8-triazaspiro[4,5]decan-2-one] is lower in BTX inhibition: 60 for the first, 42 for the second.

First: O=C(c1ccccc1C(F)(F)F)N1CCC2(CC1)NCC(=O)N2Cc1ccccc1F [Example 303, 1-(2-Fluorobenzyl)-8-(2-trifluoromethylbenzoyl)-1,4,8-triazaspiro[4,5]decan-2-one]
Second: O=C(c1ccc(F)c(F)c1)N1CCC2(CC1)NCC(=O)N2CCOc1ccccc1 [Example 142, 8-(3,4-Difluorobenzoyl)-1-(2-phenoxyethyl)-1,4,8-triazaspiro[4,5]decan-2-one]
The BTX inhibition of the first is lower: 30 for the first, 32 for the second.

Compared with `CCCCC(=O)N1CCC2(CC1)NC(CCSC)C(=O)N2Cc1cc(C)cc(C)c1` (stereo not shown) [Example 189, 1-(3,5-Dimethylbenzyl)-3-(2-methylsulfanylethyl)-8-pentanoyl-1,4,8-triazaspiro[4,5]decan-2-one], `C=CCN1C(=O)C(CCSC)NC12CCN(C(=O)c1c(F)c(F)c(F)c(F)c1F)CC2` (stereo not shown) [Example 302, 1-Allyl-3-(2-methylsulfanylethyl)-8-pentafluorobenzoyl-1,4,8-triazaspiro[4,5]decan-2-one] is lower in BTX inhibition: 40 for the first, 39 for the second.

Compared with `Cc1oc(C(C)(C)C)cc1C(=O)N1CCC2(CC1)NC(C(C)C)C(=O)N2CCOc1ccccc1` (stereo not shown) [Example 196, 8-(5-tert-Butyl-2-methylfuran-3-carbonyl)-3-isopropyl-1-(2-phenoxyethyl)-1,4,8-triazaspiro[4,5]decan-2-one], `COC(=O)c1ccc(CN2C(=O)CNC23CCN(C(=O)c2snnc2C)CC3)cc1` [Example 258, Methyl 4-[8-(4-methyl[1,2,3]thiadiazole-5-carbonyl)-2-oxo-1,4,8-triazaspiro[4,5]dec-1-ylmethyl]benzoate] is lower in BTX inhibition: 52 for the first, 32 for the second.

Target: T1, 5-HT transporter (Rattus norvegicus, UniProt P31652)
T1 construct: synaptosomes of rat brain areas are freshly isolated; from tissue; host or cells: rat brain synaptosomes (P2 fraction) from marrow and pons
Assay: Inhibition of 5-HT uptake in rat brain synaptosomes
Type: biochemical
Conditions: read-out: Uptake 5-HT, % inhibition; Table III; rat, 1 μM

T1 sequence (P31652 whole entry): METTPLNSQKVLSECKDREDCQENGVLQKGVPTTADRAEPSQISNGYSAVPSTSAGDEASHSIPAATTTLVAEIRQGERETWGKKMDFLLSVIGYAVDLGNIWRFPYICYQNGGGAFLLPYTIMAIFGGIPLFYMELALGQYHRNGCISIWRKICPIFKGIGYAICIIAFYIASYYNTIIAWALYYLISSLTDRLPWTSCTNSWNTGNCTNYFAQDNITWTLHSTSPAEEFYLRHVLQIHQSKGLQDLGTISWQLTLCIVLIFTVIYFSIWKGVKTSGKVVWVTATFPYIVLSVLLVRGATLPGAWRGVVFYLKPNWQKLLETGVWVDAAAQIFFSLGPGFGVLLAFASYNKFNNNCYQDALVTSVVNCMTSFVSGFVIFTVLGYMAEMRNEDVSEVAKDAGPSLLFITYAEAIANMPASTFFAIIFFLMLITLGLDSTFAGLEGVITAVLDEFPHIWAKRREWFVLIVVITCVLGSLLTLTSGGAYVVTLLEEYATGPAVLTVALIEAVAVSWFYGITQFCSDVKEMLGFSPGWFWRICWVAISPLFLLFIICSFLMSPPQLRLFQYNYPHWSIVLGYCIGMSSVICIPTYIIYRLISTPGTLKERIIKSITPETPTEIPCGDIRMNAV

Compared with `O=C(c1ccc(Br)cc1)N1CCC2(CC1)NC(Cc1ccccc1)C(=O)N2Cc1ccccc1` (stereo not shown) [Example 105, 1,3-Dibenzyl-8-(4-bromobenzoyl)-1,4,8-triazaspiro[4,5]decan-2-one], `CC(C)CC1NC2(CCN(C(=O)c3ccc(-c4ccccc4)cc3)CC2)N(Cc2ccc(F)cc2)C1=O` (stereo not shown) [Example 101, 8-(Biphenyl-4-carbonyl)-1-(4-fluorobenzyl)-3-isobutyl-1,4,8-triazaspiro[4,5]decan-2-one] is lower in inhibition at 1 µM: 68% for the first, 33% for the second.

Reference: patent US7951815B2, “Substituted 1,4,8-triazaspiro [4,5]decan-2-one compounds” (Gruenenthal GmbH, priority 2004, dated 2011)
